These results are taken from paper PMC10648937, “Drug distribution and efficacy of the DprE1 inhibitor BTZ-043 in the C3HeB/FeJ mouse tuberculosis model” (Antimicrobial Agents and Chemotherapy, 2023).

For test [1], the system named is non-replicating Mtb in rabbit caseum. Set-up: method as in PMID 34370580. The conditions noted are these: similarly reported previously; cited from earlier work.
Another test has as its system Mtb. Set-up: method as in PMID 34370580. The conditions noted are these: C3HeB/FeJ mice, 8 weeks (5 of 7 days per week), cited from earlier work.
The subject of test [2] is Mtb Erdman. In words: Broth microdilution MIC (Alamar Blue endpoint), with and without 4% huSA (serum-shift assay). As to conditions: for MIC: Mycobacterium tuberculosis, ERDMAN; for shift in MIC in the presence of huSA: physiologic levels (4%) of huSA. (Dilution methods test growth across graded concentrations, often in twofold steps.)
Test [3] relates to Mtb Erdman. In words: Semi-quantitative MBC (sqMBC) assay. The conditions noted are these: M. tuberculosis Erdman; for sqMBC: 10 d incubation, 99% (2-log10) CFU reduction of inoculum; for sqMBC + huSA: with 4% huSA. The test is classed as cell-based, Mycobacterium tuberculosis.

Like-named read-outs stand apart in the source and are kept apart here.

Take `O=c1nc(N2CCN(CC3CCCCC3)CC2)sc2c([N+](=O)[O-])cc(C(F)(F)F)cc12` [PBTZ169]: the “activity against non-replicating Mtb in rabbit caseum MBC assay” value in test [1] is given as “lacked appreciable activity”. Further, the “average lung CFU reduction compared to untreated controls” value in the test with Mtb (50 and 100 mg/kg QD) is listed as 1.5 log10. Moreover, in the test with Mtb Erdman [2], the MIC is ≤ 2 ng/mL and the “shift in MIC in the presence of huSA” value was found to be 8 fold. Moreover, the MIC with Mtb Erdman [2] (read-out: MIC + huSA) was 16 ng/mL. Besides, in the test on Mtb Erdman [3], the sqMBC is ≤ 0.002 µg/mL and the “sqMBC + huSA” value worked out at 0.016 µg/mL.
Turning to `COc1c(N2C[C@@H]3CCCN[C@@H]3C2)c(F)cc2c(=O)c(C(=O)O)cn(C3CC3)c12` [moxifloxacin], in the test on Mtb Erdman [2], the MIC came to 60 ng/mL. Besides, the sqMBC with Mtb Erdman [3] was determined as 0.125 µg/mL.
`O=C1CCc2c(OC[C@]3(O)CCN(c4c(F)cc(Cl)cc4F)C[C@H]3O)ccc(F)c2N1` [OPC-167832]: the “activity against non-replicating Mtb in rabbit caseum MBC assay” value in test [1] is on record as “lacked appreciable activity”. The “average lung CFU reduction compared to untreated controls” value with Mtb (5 and 20 mg/kg QD) is reported as 3 log10. In the test with Mtb Erdman [2], the MIC stood at 0.5 ng/mL and the “shift in MIC in the presence of huSA” value came out at 16 fold. Moreover, in the test on Mtb Erdman [2] (read-out: MIC + huSA), the MIC turned out to be 8 ng/mL. In the test with Mtb Erdman [3], the sqMBC amounted to 0.001 µg/mL and the “sqMBC + huSA” value was 0.016 µg/mL.

In general, MIC refers to the least concentration at which growth counts as inhibited.
